Measured values reported in US9255072B2, “Pyrazole compounds and thiazole compounds as protein kinases inhibitors” (National Health Rsearch Institutes, priority 2011, dated 2016).
Like-named read-outs stand apart in the source and are kept apart here.

How the values were obtained:
Assay type in all cases: biochemical
Aurora A = target: T1, Aurora A (Homo sapiens, UniProt O14965); assay: Aurora kinase A Kinase-Glo kinase assay; conditions: Aurora A assay, 5 μM ATP, read-out: IC50
T1 construct: GST-Aurora A (residues S123-S401); GST (N); made in house; host or cells: Sf9 insect cells
T1 sequence (O14965 123-401): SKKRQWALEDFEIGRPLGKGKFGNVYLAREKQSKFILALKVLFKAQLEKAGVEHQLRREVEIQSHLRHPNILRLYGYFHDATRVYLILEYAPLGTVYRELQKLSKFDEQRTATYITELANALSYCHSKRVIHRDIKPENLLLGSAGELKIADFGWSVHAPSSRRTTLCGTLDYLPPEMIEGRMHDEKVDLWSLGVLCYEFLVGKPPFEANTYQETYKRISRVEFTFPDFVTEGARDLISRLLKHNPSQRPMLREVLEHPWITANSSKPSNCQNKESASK
Procedure: The recombinant GST-Aurora A (residues S123-S401) containing kinase domain were expressed in Sf9 insect cells. The kinase assay were carried out in 96-well plates with tested compound in a final volume of 50 μl reaction at 37° C. for 90 minutes with following components: 50 mM Tris-HCl pH 7.4, 10 mM NaCl, 10 mM MgCl2, 0.01% BSA, 5 μM ATP, 1 mM DTT and 15 μM tetra(LRRASLG) peptide, and 150 ng recombinant Aurora A. Following incubation, 50 μl Kinase-Glo Plus Reagent (Promega, Madison, Wis., USA) was added to each well and the mixture was incubated at 25° C. for 20 min. A 70-μL aliquot of each reaction mixture was transferred to a black microtiter plate and the luminescence was measured on Wallac Vector 1420 multilabel counter (PerkinElmer, Shelton, Conn., USA).

VEGFR2 = target: T2, VEGFR2 (Homo sapiens, UniProt P35968); assay: VEGFR2 Kinase-Glo kinase assay; conditions: VEGFR2 assay, 1 μM ATP, read-out: IC50
T2 construct: GST-VEGFR2 (residues V789-V1356); GST (N); made in house; host or cells: Sf9 insect cells
Procedure: (§1) The recombinant GST-VEGFR1 (residues R781-I1338) or GST-VEGFR2 (residues V789-V1356) containing kinase domain were expressed in Sf9 insect cells. The kinase assay were carried out in 96-well plates with tested compound in a final volume of 50 μl reaction at 30° C. for 120 minutes with following components: 25 mM HEPES pH 7.4, 10 mM MgCl2, 4 mM MnCl2, 0.5 mM Na3VO4, 2 mM DTT, 0.02% Triton X100, 0.01% BSA, 1 μM ATP, 2 μM polyGlu4:Tyr peptide, 50˜100 ng recombinant VEGFR1 or VEGFR2. Following incubation, 50 μl Kinase-Glo Plus Reagent (Promega, Madison, Wis., USA) was added to each well and the mixture was incubated at 25° C. for 20 min. A 70-μL aliquot of each reaction mixture was transferred to a black microtiter plate and the luminescence was measured on Wallac Vector 1420 multilabel counter (PerkinElmer, Shelton, Conn., USA).

VEGFR1 = target: T3, VEGFR1 (Homo sapiens, UniProt P17948); assay: VEGFR1 Kinase-Glo kinase assay; conditions: VEGFR1 assay, 1 μM ATP, read-out: IC50
T3 construct: GST-VEGFR1 (residues R781-I1338); GST (N); made in house; host or cells: Sf9 insect cells
T3 sequence (P17948 781-1338): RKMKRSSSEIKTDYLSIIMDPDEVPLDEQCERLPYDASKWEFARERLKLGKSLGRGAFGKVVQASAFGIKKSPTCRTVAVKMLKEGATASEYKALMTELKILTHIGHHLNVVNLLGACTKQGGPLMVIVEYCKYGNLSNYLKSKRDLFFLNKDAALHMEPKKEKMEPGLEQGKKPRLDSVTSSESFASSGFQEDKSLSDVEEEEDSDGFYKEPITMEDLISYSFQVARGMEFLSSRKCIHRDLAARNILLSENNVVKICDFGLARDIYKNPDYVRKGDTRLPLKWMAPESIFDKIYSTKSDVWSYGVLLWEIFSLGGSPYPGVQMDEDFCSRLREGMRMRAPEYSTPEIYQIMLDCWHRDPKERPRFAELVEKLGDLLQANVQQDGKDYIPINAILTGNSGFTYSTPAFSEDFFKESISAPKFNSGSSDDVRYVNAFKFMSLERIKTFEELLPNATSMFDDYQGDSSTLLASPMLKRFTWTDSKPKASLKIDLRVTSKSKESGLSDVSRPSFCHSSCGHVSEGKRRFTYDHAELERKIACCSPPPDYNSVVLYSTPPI
Procedure: as §1

wt-FLT3 = target: T4, wt-FLT3 (Homo sapiens, UniProt P36888); assay: FLT3 WT Kinase-Glo assay; conditions: FLT3 WT Kinase-Glo, 1 μM ATP; read-out: IC50
T4 construct: FLT3 kinase catalytic domain (residues Y567˜S993); made in house; host or cells: Sf9 insect cells (baculovirus, pBac-PAK8-GST-FLT3-KD plasmid)
T4 sequence (P36888 567-993): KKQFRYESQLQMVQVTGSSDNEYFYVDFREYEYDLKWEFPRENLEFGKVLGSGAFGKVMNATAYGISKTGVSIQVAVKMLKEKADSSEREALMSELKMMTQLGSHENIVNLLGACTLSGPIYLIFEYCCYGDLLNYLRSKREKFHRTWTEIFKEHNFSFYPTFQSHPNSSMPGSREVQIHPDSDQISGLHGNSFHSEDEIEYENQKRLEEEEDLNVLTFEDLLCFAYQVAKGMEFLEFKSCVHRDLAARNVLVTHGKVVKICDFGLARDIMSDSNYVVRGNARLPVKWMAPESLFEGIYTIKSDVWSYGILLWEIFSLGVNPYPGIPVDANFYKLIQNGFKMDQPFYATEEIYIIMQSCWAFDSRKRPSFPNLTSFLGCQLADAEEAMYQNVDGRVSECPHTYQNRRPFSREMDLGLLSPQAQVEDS
Procedure: GST-FLT3-KD^WT containing the FLT3 kinase catalytic domain (residues Y567˜S993) were expressed in Sf9 insect cells transfected the baculovirus containing pBac-PAK8-GST-FLT3-KD plasmid. […] Following incubation, 50 μl Kinase-Glo Plus Reagent (Promega, Madison, Wis., USA) was added to each well and the mixture was incubated at 25° C. for 20 min. A 70-μL aliquot of each reaction mixture was transferred to a black microtiter plate and the luminescence was measured on Wallac Vector 1420 multilabel counter (PerkinElmer, Shelton, Conn., USA).

T2 sequence (P35968 789-1356): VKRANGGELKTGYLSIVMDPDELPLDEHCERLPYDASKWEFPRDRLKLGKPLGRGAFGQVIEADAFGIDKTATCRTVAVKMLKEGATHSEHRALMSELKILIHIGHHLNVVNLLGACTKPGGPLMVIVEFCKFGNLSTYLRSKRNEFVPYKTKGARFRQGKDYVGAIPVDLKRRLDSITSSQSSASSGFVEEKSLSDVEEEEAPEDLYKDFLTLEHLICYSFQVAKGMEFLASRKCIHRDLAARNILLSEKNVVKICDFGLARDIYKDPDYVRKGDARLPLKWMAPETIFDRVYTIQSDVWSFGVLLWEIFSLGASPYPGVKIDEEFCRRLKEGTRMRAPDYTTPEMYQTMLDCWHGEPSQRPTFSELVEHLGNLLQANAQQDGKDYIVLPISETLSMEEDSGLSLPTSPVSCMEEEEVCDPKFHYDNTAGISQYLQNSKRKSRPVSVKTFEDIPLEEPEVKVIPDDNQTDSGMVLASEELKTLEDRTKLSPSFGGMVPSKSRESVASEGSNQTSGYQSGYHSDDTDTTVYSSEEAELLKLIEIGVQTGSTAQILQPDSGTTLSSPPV

Row | SMILES | IC50 (Aurora A; bound in nM) [nM] | IC50 (Aurora A; bound in μM) [nM] | IC50 (VEGFR2; bound in μM) [µM] | IC50 (VEGFR2; ranges in nM) [µM] | IC50 (VEGFR1; bound in μM) [µM] | IC50 (wt-FLT3) [nM] | IC50 (VEGFR1; bound in nM) [µM]
1 | CN1CCN(c2ccc(C(=O)Nc3cc(-c4ccc(NC(=O)c5ccccc5)cc4)n[nH]3)cc2)CC1 [Compound 10, N1-3-[4-(benzoylamino)phenyl]-1H-5-pyrazolyl-4-(4-methylpiperazino)benzamide] | < 200 | < 1000 |  |  |  |  | 
2 | CN1CCN(c2ccc(C(=O)Nc3cc(-c4cccc(NS(=O)(=O)c5ccccc5)c4)n[nH]3)cc2)CC1 [Compound 12, N1-(3-3-[(phenylsulfonyl)amino]phenyl-1H-5-pyrazolyl)-4-(4-methylpiperazino)benzamide] |  | < 1000 | < 1 | 0.055 to 0.4 | < 1 | 1 to 20 | 
3 | Cc1cccc(S(=O)(=O)Nc2cccc(-c3cc(NC(=O)c4ccc(N5CCN(C)CC5)cc4)[nH]n3)c2)c1 [Compound 15, N1-[3-(3-[(3-methylphenyl)sulfonyl]aminophenyl)-1H-5-pyrazolyl]-4-(4-methylpiperazino)benzamide] |  | < 1000 | < 1 | 0.055 to 0.4 | < 1 | 1 to 20 | 
4 | CN1CCN(c2ccc(C(=O)Nc3cc(-c4ccc(NC(=O)Nc5ccccc5)cc4)n[nH]3)cc2)CC1 [Compound 30, N1-(3-4-[(anilinocarbonyl)amino]phenyl-1H-5-pyrazolyl)-4-(4-methylpiperazino)benzamide] |  | < 1000 | < 1 | 0.001 to 0.055 |  | 1 to 20 | 
5 | Cc1cc(NC(=O)Nc2ccc(-c3cc(NC(=O)c4ccc(N5CCN(C)CC5)cc4)[nH]n3)cc2)no1 [Compound 32, N1-3-[4-([(5-methyl-3-isoxazolyl)amino]carbonylamino)phenyl]-1H-5-pyrazolyl-4-(4-methylpiperazino)benzamide] | < 200 | < 1000 | < 1 | 0.001 to 0.055 | < 1 | 1 to 20 | 
6 | CN1CCN(Cc2ccc(C(=O)Nc3cc(-c4ccc(NC(=O)Nc5cc(C(C)(C)C)on5)cc4)n[nH]3)cc2)CC1 [Compound 43, N1-(3-4-[([5-(tert-butyl)-3-isoxazolyl]aminocarbonyl)amino]phenyl-1H-5-pyrazolyl)-4-[(4-methylpiperazino)methyl]benzamide] | < 200 | < 1000 | < 1 | 0.001 to 0.055 | < 1 | 1 to 20 | < 0.1
7 | CC(C)(C)c1cc(NC(=O)Nc2ccc(-c3cc(NC(=O)c4ccc(OCCN5CCOCC5)cc4)[nH]n3)cc2)no1 [Compound 44, N1-(3-4-[([5-(tert-butyl)-3-isoxazolyl]aminocarbonyl)amino]phenyl-1H-5-pyrazolyl)-4-(2-morpholinoethoxy)benzamide] | < 200 | < 1000 | < 1 | 0.001 to 0.055 | < 1 | 1 to 20 | < 0.1
8 | Cc1cc(NC(=O)Nc2ccc(-c3cc(NC(=O)c4ccc(N5CCN(C)CC5)cc4)[nH]n3)cc2C)no1 [Compound 47, N1-3-[3-methyl-4-([(5-methyl-3-isoxazolyl)amino]carbonylamino)phenyl]-1H-5-pyrazolyl-4-(4-methylpiperazino)benzamide] |  | < 1000 | < 1 | 0.001 to 0.055 |  | 1 to 20 | 
9 | O=C(NCc1ccc(-c2cc(NC(=O)c3ccc(OCCN4CCOCC4)cc3)[nH]n2)cc1)Nc1ccccc1 [Compound 61a, N1-[3-(4-[(anilinocarbonyl)amino]methylphenyl)-1H-5-pyrazolyl]-4-(2-morpholinoethoxy)benzamide] |  | < 1000 | < 1 | 0.001 to 0.055 |  | 1 to 20 | 
10 | CN1CCN(c2ccc(C(=O)Nc3cc(-c4ccc(CNC(=O)OCc5ccccc5)cc4)n[nH]3)cc2)CC1 [Compound 70, Benzyl-N-[4-(5-[4-(4-methylpiperazino)benzoyl]amino-1H-3-pyrazolyl)benzyl]carbamate] |  | < 1000 | < 1 | 0.055 to 0.4 | < 1 | 1 to 20 | < 0.1
11 | Cc1nc(Nc2cc(-c3cccc(NS(=O)(=O)c4ccccc4)c3)n[nH]2)cc(N2CCN(C)CC2)n1 [Compound 85, N1-[3-(5-[2-methyl-6-(4-methylpiperazino)-4-pyrimidinyl]amino-1H-3-pyrazolyl)phenyl]-1-benzenesulfonamide] |  | < 1000 | < 1 | 0.055 to 0.4 | < 1 | 1 to 20 | 
12 | CCN1CCN(c2cc(Nc3ncc(-c4ccc(N)cc4)s3)nc(C)n2)CC1 [Compound 102] | < 200 |  |  |  |  | 1 to 20 | 
13 | Cc1nc(Nc2ncc(-c3ccc(NC(=O)Nc4cc(C)on4)cc3)s2)cc(N2CCN(C)CC2)n1 [Compound 103, N-(5-methyl-3-isoxazolyl)-N′-[4-(2-[2-methyl-6-(4-methylpiperazino)-4-pyrimidinyl]amino-1,3-thiazol-5-yl)phenyl]urea] |  | < 1000 |  |  |  |  | 
14 | Cc1cc(NC(=O)Nc2ccc(-c3cnc(NC(=O)c4ccc(OCCN5CCOCC5)cc4)s3)cc2)no1 [Compound 120, N1-5-[4-([(5-methyl-3-isoxazolyl)amino]carbonylamino)phenyl]-1,3-thiazol-2-yl-4-(2-morpholinoethoxy)benzamide] | < 200 |  |  |  |  |  | 
